Results from patent US9150545B2, “Carboxamide compounds and their use as calpain inhibitors V” (ABBVIE DEUTSCHLAND GMBH & CO. KG, priority 2012, dated 2015).
Counter-ions that a name gives are not always drawn.

Target: T1, calpain-I isolated from human erythrocytes (Homo sapiens, UniProt P07384)
T1 construct: calpain-I—isolated from human erythrocytes (Calbiochem #208713); purchased Calbiochem 208713; host or cells: human erythrocytes (native tissue isolate)
T1 sequence (P07384 1-714): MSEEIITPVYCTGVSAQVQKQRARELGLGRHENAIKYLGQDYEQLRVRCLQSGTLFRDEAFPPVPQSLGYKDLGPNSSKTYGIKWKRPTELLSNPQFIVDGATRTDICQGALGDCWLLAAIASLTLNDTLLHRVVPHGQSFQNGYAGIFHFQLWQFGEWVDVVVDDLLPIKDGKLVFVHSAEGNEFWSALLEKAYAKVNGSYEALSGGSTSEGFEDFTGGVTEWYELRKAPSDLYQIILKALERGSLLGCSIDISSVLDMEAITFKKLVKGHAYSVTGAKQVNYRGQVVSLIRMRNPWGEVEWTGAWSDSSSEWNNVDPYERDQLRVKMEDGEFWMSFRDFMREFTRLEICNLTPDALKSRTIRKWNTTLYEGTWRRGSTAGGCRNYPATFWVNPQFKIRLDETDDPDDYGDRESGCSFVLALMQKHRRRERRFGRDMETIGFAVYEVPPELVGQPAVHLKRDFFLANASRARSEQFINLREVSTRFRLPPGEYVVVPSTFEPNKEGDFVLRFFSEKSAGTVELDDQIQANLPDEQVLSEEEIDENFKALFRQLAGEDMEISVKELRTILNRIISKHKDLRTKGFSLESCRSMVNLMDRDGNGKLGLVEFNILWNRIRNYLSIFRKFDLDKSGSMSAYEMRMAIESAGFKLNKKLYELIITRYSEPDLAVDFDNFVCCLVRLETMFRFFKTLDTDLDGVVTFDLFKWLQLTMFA
T1 sequence (P04632 1-268 partner): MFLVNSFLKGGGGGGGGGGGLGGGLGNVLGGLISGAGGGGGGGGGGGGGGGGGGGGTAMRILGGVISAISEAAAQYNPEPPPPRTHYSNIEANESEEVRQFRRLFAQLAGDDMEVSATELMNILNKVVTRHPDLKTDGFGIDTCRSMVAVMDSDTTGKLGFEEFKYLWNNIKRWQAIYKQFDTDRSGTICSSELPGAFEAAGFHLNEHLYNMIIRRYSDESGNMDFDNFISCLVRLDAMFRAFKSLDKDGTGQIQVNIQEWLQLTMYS
Test: Calpain I kinetic fluorescence enzyme inhibition assay
Assay type: biochemical
Conditions: apparent Ki from IC50 by Cheng-Prussoff
Procedure: Testing for blockade of the corresponding enzymic activities was carried out by means of kinetic fluorescence assays (excitation 390 nm, emission 460 nm).
Apparent Ki values were calculated from the experimentally determined IC50 values by the Cheng-Prussoff relation assuming a reversible competitive enzyme inhibition.
20 nM calpain-I—isolated from human erythrocytes (Calbiochem #208713), 100 μM Suc-Leu-Tyr-AMC (Bachem #I-1355) as substrate in buffer with 62 mM imidazole, 0.3 mM CaCl2, 0.10% CHAPS, 0.05% BSA, 1 mM DTT at pH 7.3 and room temperature.

Row | SMILES | Ki
1 | CCN(CC)Cc1ccn(-c2ncccc2C(=O)NC(Cc2ccccc2)C(=O)C(N)=O)n1 (stereo not drawn) [Example 18, N-(4-Amino-3,4-dioxo-1-phenylbutan-2-yl)-2-(3-((diethylamino)methyl)-1H-pyrazol-1-yl)nicotinamide trifluoroacetate] | 250 to 400 nM
2 | NC(=O)C(=O)C(Cc1ccccc1)NC(=O)c1cccnc1-n1ccc(CN2CCOc3ccccc32)n1 (stereo not drawn) [Example 6, 2-(3-((2H-Benzo[b][1,4]oxazin-4(3H)-yl)methyl)-1H-pyrazol-1-yl)-N-(4-amino-3,4-dioxo-1-phenylbutan-2-yl)nicotinamide] | < 250 nM
3 | CN(Cc1ccn(-c2ncccc2C(=O)NC(Cc2ccccc2)C(=O)C(N)=O)n1)CC1CCC(C(F)(F)F)CC1 (stereo not drawn) [Example 25, N-(4-Amino-3,4-dioxo-1-phenylbutan-2-yl)-2-(3-((methyl((4-(trifluoromethyl)cyclohexyl)methyl)amino)methyl)-1H-pyrazol-1-yl)nicotinamide trifluoroacetate] | < 250 nM
4 | NC(=O)C(=O)C(Cc1ccccc1)NC(=O)c1cccnc1-n1ccc(CN2Cc3ccc(F)cc3C2)n1 (stereo not drawn) [Example 31, N-(4-Amino-3,4-dioxo-1-phenylbutan-2-yl)-2-(3-((5-fluoroisoindolin-2-yl)methyl)-1H-pyrazol-1-yl)nicotinamide trifluoroacetate] | < 250 nM
5 | CCCCC(NC(=O)c1cccnc1-n1ccc(CN2CCC(F)(F)CC2)n1)C(=O)C(N)=O (stereo not drawn) [Example 38, N-(1-Amino-1,2-dioxoheptan-3-yl)-2-(3-((4,4-difluoropiperidin-1-yl)methyl)-1H-pyrazol-1-yl)nicotinamide] | < 250 nM
6 | NC(=O)C(=O)C(Cc1ccccc1)NC(=O)c1cccnc1-n1ccc(CN2CCC2)n1 (stereo not drawn) [Example 11, N-(4-Amino-3,4-dioxo-1-phenylbutan-2-yl)-2-(3-(azetidin-1-ylmethyl)-1H-pyrazol-1-yl)nicotinamide trifluoroacetate] | 250 to 400 nM
7 | NC(=O)C(=O)C(Cc1ccccc1)NC(=O)c1cccnc1-n1ccc(CN2Cc3cccc(F)c3C2)n1 (stereo not drawn) [Example 33, N-(4-Amino-3,4-dioxo-1-phenylbutan-2-yl)-2-(3-((4-fluoroisoindolin-2-yl)methyl)-1H-pyrazol-1-yl)nicotinamide trifluoroacetate] | < 250 nM
8 | NC(=O)C(=O)C(Cc1ccccc1)NC(=O)c1cccnc1-n1ccc(CN2Cc3ccc(C(F)(F)F)cc3C2)n1 (stereo not drawn) [Example 30, N-(4-Amino-3,4-dioxo-1-phenylbutan-2-yl)-2-(3-((5-(trifluoromethyl)isoindolin-2-yl)methyl)-1H-pyrazol-1-yl)nicotinamide trifluoroacetate] | < 250 nM
9 | CCCCC(NC(=O)c1cccnc1-n1ccc(CN2Cc3ccccc3C2)n1)C(=O)C(N)=O (stereo not drawn) [Example 39, N-(1-Amino-1,2-dioxoheptan-3-yl)-2-(3-(isoindolin-2-ylmethyl)-1H-pyrazol-1-yl)nicotinamide] | < 250 nM
10 | NC(=O)C(=O)C(Cc1ccccc1)NC(=O)c1cccnc1-n1ccc(CN2CCC(c3ccccc3)C2)n1 (stereo not drawn) [Example 29, N-(4-Amino-3,4-dioxo-1-phenylbutan-2-yl)-2-(3-((3-phenylpyrrolidin-1-yl)methyl)-1H-pyrazol-1-yl)nicotinamide] | < 250 nM
11 | NC(=O)C(=O)C(Cc1ccccc1)NC(=O)c1cccnc1-n1ccc(CN2CCCCC2)n1 (stereo not drawn) [Example 7, N-(4-Amino-3,4-dioxo-1-phenylbutan-2-yl)-2-(3-(piperidin-1-ylmethyl)-1H-pyrazol-1-yl)nicotinamide hydrochloride] | < 250 nM
12 | NC(=O)C(=O)C(Cc1ccccc1)NC(=O)c1cccnc1-n1ccc(CN2CCC(C(F)(F)F)CC2)n1 (stereo not drawn) [Example 12, N-(4-Amino-3,4-dioxo-1-phenylbutan-2-yl)-2-(3-((4-(trifluoromethyl)piperidin-1-yl)methyl)-1H-pyrazol-1-yl)nicotinamide trifluoroacetate] | < 250 nM
13 | CN(Cc1ccn(-c2ncccc2C(=O)NC(Cc2ccccc2)C(=O)C(N)=O)n1)c1ccccc1 (stereo not drawn) [Example 16, N-(4-Amino-3,4-dioxo-1-phenylbutan-2-yl)-2-(3-((methyl(phenyl)amino)methyl)-1H-pyrazol-1-yl)nicotinamide] | < 250 nM
14 | NC(=O)C(=O)C(Cc1ccccc1)NC(=O)c1cccnc1-n1ccc(CN2CCC3(CC2)COC3)n1 (stereo not drawn) [Example 17, 2-(3-(2-Oxa-7-azaspiro[3.5]nonan-7-ylmethyl)-1H-pyrazol-1-yl)-N-(4-amino-3,4-dioxo-1-phenylbutan-2-yl)nicotinamide trifluoroacetate] | < 250 nM

Other lines, results leading:

Row | Ki | SMILES
15 | < 250 nM | NC(=O)C(=O)C(Cc1ccccc1)NC(=O)c1cccnc1-n1ccc(CN2CCc3ccccc32)n1 (stereo not drawn) [Example 15, N-(4-Amino-3,4-dioxo-1-phenylbutan-2-yl)-2-(3-(indolin-1-ylmethyl)-1H-pyrazol-1-yl)nicotinamide]
16 | < 250 nM | NC(=O)C(=O)C(Cc1ccccc1)NC(=O)c1cccnc1-n1cc2c(n1)CCN(Cc1ccccc1)C2 (stereo not drawn) [Example 40, N-(4-Amino-3,4-dioxo-1-phenylbutan-2-yl)-2-(5-benzyl-4,5,6,7-tetrahydro-2H-pyrazolo[4,3-c]pyridin-2-yl)nicotinamide]
17 | < 250 nM | NC(=O)C(=O)C(Cc1ccccc1)NC(=O)c1cccnc1-n1cc2c(n1)CCN(CC1CC1)C2 (stereo not drawn) [Example 41, N-(4-Amino-3,4-dioxo-1-phenylbutan-2-yl)-2-(5-(cyclopropylmethyl)-4,5,6,7-tetrahydro-2H-pyrazolo[4,3-c]pyridin-2-yl)nicotinamide]
18 | < 250 nM | CN(Cc1ccccc1)Cc1ccn(-c2ncccc2C(=O)NC(Cc2ccccc2)C(=O)C(N)=O)n1 (stereo not drawn) [Example 21, N-(4-Amino-3,4-dioxo-1-phenylbutan-2-yl)-2-(3-((benzyl(methyl)amino)methyl)-1H-pyrazol-1-yl)nicotinamide trifluoroacetate]
19 | < 250 nM | CC(c1ccn(-c2ncccc2C(=O)NC(Cc2ccccc2)C(=O)C(N)=O)n1)N1Cc2ccccc2C1 (stereo not drawn) [Example 35, N-(4-Amino-3,4-dioxo-1-phenylbutan-2-yl)-2-(3-(1-(isoindolin-2-yl)ethyl)-1H-pyrazol-1-yl)nicotinamide trifluoroacetate]
20 | < 250 nM | CC1CN(Cc2ccn(-c3ncccc3C(=O)NC(Cc3ccccc3)C(=O)C(N)=O)n2)CC(C)O1 (single isomer, unassigned) [Example 2b, N-(4-Amino-3,4-dioxo-1-phenylbutan-2-yl)-2-(3-((2,6-dimethylmorpholino)-methyl)-1H-pyrazol-1-yl)nicotinamide]
21 | < 250 nM | NC(=O)C(=O)C(Cc1ccccc1)NC(=O)c1cccnc1-n1ccc(CNc2ccccc2)n1 (stereo not drawn) [Example 28, N-(4-Amino-3,4-dioxo-1-phenylbutan-2-yl)-2-(3-((phenylamino)methyl)-1H-pyrazol-1-yl)nicotinamide]
22 | < 250 nM | CC(C)(C)C1CCN(Cc2ccn(-c3ncccc3C(=O)NC(Cc3ccccc3)C(=O)C(N)=O)n2)CC1 (stereo not drawn) [Example 23, N-(4-Amino-3,4-dioxo-1-phenylbutan-2-yl)-2-(3-((4-tert-butylpiperidin-1-yl)methyl)-1H-pyrazol-1-yl)nicotinamide]
23 | < 250 nM | NC(=O)C(=O)C(Cc1ccccc1)NC(=O)c1cccnc1-n1cc2c(n1)CCNC2 (stereo not drawn) [Example 42, N-(4-Amino-3,4-dioxo-1-phenylbutan-2-yl)-2-(4,5,6,7-tetrahydro-2H-pyrazolo[4,3-c]pyridin-2-yl)nicotinamide hydrochloride]
24 | < 250 nM | NC(=O)C(=O)C(Cc1ccccc1)NC(=O)c1cccnc1-n1cc2c(n1)CNC2 (stereo not drawn) [Example 44, N-(4-Amino-3,4-dioxo-1-phenyl-2-butanyl)-2-(5,6-dihydropyrrolo[3,4-c]pyrazol-2(4H)-yl)nicotinamide hydrochloride]
